Reference: patent US5277897A, “In vivo enhancement of cellular accumulation of lipophilic cationic organometallic compounds by reduction of intramembrane potential” (Brigham and Women's Hospital, priority 1992, dated 1994)

Legend:
[1] = tested on: cultured chick heart cells; assay: Effect of 8-anilino-1-naphthalene sulfonic acid on net uptake of Tc-MIBI in cultured chick heart cells (FIG. 9); format: cell-based; conditions: Gallus gallus, 0.5 h; 8-ANS 10^-4 M, within 30 minutes; read-out: net uptake of Tc-MIBI enhanced over the control
Experimental: FIG. 9. Effect of 8-anilino-1-naphthalene sulfonic acid on net uptake of Tc-M1B1 in cultured chick heart cells. Preparations were incubated for the times indicated in Tc-MIBI loading buffer in the absence (.quadrature.) and presence of 8-ANS ( , 10^-7 M; , 10^-4 M). Each point represents the mean ±SEM of 3-4 determinations.
(§1) Monolayers of spontaneously contractile chick ventricular myocardial cells were obtained from disaggregated 10-day old chick embryo hearts by a slight modification of previously published methods (Horres, C. R., et al., In Pinson, A. (ed.), The Heart Cell in Culture, Boca Raton, CRC Press, pp. 77-108 (1987)). Hearts were trimmed of connective tissue and atria, finely minced and serially exposed to 0.024% (w/v) trypsin in Ca^2+ - and Mg^2+ - free Earle's salt solution for 7 minutes at 37° C. Gentle trituration and agitation on an orbital shaker bath aided disaggregation. Cells released from the first exposure were discarded and cells aspirated from the next four exposures were then added to an equal volume of trypsin deactivating solution consisting of ice-cold culture medium. Cells were centrifuged at 400 g for 10 minutes, resuspended and combined in culture medium, counted with a hemocytometer and diluted to yield a suspension of 5×10^5 cells/ml. […]

perfused rabbit heart = conditions: ouabain 1.5×10^-6 M; cited from earlier work
[2] = tested on: cultured chick heart cells; assay: Effect of TPB on net accumulation of Tc-MIBI in cultured chick heart cells (FIG. 1); format: cell-based; conditions: TPB 10^-5 M; P <0.001
Experimental: FIG. 1. Effect of TPB on net accumulation of Tc-MIBI in cultured chick heart cells. Preparations were incubated for the times indicated in Modified Earle's Basic Salt Solution (MEBSS) control buffer containing tracer Tc-MIBI alone (.quadrature.) and with various concentrations of tetraphenylborate: ( ) 10^-9 M; ( ) 5×10^-7 M; (·) 10^-5 M. Results are expressed as fmol cellular Tc-MIBI/mg protein per nM extracellular Tc MIBI. Each point represents the mean ±SEM of 3 determinations.
Control buffer was a modified Earle's balanced salt solution (MEBSS) with the following composition (mN) Na^30, 145; K^+, 5.4; Ca^2, 1.2; Mg^2+, 0.8; Cl, 152; H2 PO4, 0.8; SO4^2-, 0.8; dextrose, 5.6; HEPES, 4.0; and bovine calf serum, 1% (v/v); pH 78.4±0.05; 37° C. […]
Monolayers of spontaneously contractile chick ventricular myocardial cells were obtained from disaggregated 10-day old chick embryo hearts by a slight modification of previously published methods (Horres, C. R., et al., In Pinson, A. (ed.), The Heart Cell in Culture, Boca Raton, CRC Press, pp. 77-108 (1987)). […] Cells were centrifuged at 400 g for 10 minutes, resuspended and combined in culture medium, counted with a hemocytometer and diluted to yield a suspension of 5×10^5 cells/ml. […]

[3] = tested on: cultured chick heart cells; assay: Concentration-effect curve for TPB enhancement of 2-minute uptake of Tc-MIBI (FIG. 2); format: cell-based
Experimental: FIG. 2. Concentration-effect curve for TPB enhancement of 2-minute uptake of Tc-MIBI. Preparations were pre-incubated for 1 minute in control MEBSS buffer containing TPB at the indicated concentrations prior to determination of tracer Tc-MIBI uptake in the continued presence of TPB. Each point represents the mean ±SEM of 3 determinations.
as §1

[4] = tested on: cultured chick heart cells; assay: Influence of TPB and CCCP on (membrane potential-independent) accumulation of Tc-MIBI (FIG. 4); format: cell-based; conditions: TPB; CCCP
Experimental: FIG. 4. […] Preparations were incubated for the times indicated in 5.4 mM Ko control loading buffer containing tracer Tc-MIBI and TPB together (Δ) or in loading buffer containing Tc-MIBI alone (.quadrature.). For the latter incubation, TPB was added to the loading buffer at the arrow and cell content of Tc-MIBI subsequently determined (o). Under each condition, CCCP was added to the loading buffers as indicated by the arrows and cell content of Tc-MIBI determined ( , , ·). Each point is the mean ±SEM of 3 determinations.
Monolayers of spontaneously contractile chick ventricular myocardial cells were obtained from disaggregated 10-day old chick embryo hearts by a slight modification of previously published methods (Horres, C. R., et al., In Pinson, A. (ed.), The Heart Cell in Culture, Boca Raton, CRC Press, pp. 77-108 (1987)). Hearts were trimmed of connective tissue and atria, finely minced and serially exposed to 0.024% (w/v) trypsin in Ca^2+ - and Mg^2+ - free Earle's salt solution for 7 minutes at 37° C. Gentle trituration and agitation on an orbital shaker bath aided disaggregation. Cells released from the first exposure were discarded and cells aspirated from the next four exposures were then added to an equal volume of trypsin deactivating solution consisting of ice-cold culture medium. Cells were centrifuged at 400 g for 10 minutes, resuspended and combined in culture medium, counted with a hemocytometer and diluted to yield a suspension of 5×10^5 cells/ml. 12 ml of suspension were incubated in 100 mm plastic culture dishes containing 7 coverslips (25 mm diameter) placed on the bottom of each dish to serve as substrate for cell growth. Cells were maintained in a humidified atmosphere of 5% CO2 /95% air for 3-4 days yielding a confluent layer of spontaneously contractile myocytes on each coverslip.
Radioactive uptake methods have been described in detail (Piwnica-Worms, D., et al, Circ. (in press). Briefly, coverslips with confluent cells were removed from culture media and pre-equilibrated for 40-60 seconds in MEBSS buffer. Uptake and retention experiments were initiated by immersion of coverslips in 60 mm glass Pyrex dishes containing loading solution consisting of buffer with 0.1-0.6 nM [^99m Tc-MIBI] (0.01-0.4 Ci/nmole; 25-100 uCi/ml). Preparations were removed at various times and rinsed three times in 25 ml volumes of ice-cold (2° C.) isotope-free buffer for 8 seconds each to clear extracellular spaces. Preparations and aliquots of the loading buffer and stock solutions were counted in a well-type sodium iodide gamma counter after which cell protein on each coverslip was extracted in 1% sodium dodecylsulfate with 10 mM sodium borate and assayed by the method of Lowry (Lowry, O. H., et al., J. Biol. Chem. 193:265-275 (1951)). Tc-MIBI binding to glass coverslips without cells was used as an estimate of non-specific adhesion to the substrate ([…] obtained with cellular preparations); this value was subtracted from total uptake determinations to derive the cell-associated counts. Use of generator equilibrium equations (Lamson, M. L., et al., i J. Nucl. Med. 16:639-641 (1975)) allowed calculation of absolute moles of Tc-MIBI in solutions and preparations. Results were therefore expressed as fmol cellular Tc-MIBI/mg protein per nM extracellular Tc-MIBI concentration. […]

[5] = Effect of tetraphenylborate on the biodistribution of Tc-MIBI in rats (Table 2); format: in vivo; conditions: TPB vs no TPB
Experimental: The results are expressed as percent injected dose per gram of tissue. […] For this series of experiments, 50 microliters of dimethylsulfoxide lacking or containing 7.2 mM TPB were injected directly into the jugular vein of anesthetized rats immediately prior to the injection of Tc-MIBI (150 microliters; 100 microCuries per 200 microliters).
After 15 minutes, the animal was sacrificed by thoracotomy, organs extracted and placed in test tubes and counted for radioactivity in a standard well-type gamma counter. Tissue wet weights were obtained by subtracting fare weights from total weight of test tubes plus tissue.
Results are expressed as mean ±SEM of three determinations each.

cultured heart cells = assay: TPB toxicity at high concentration in cultured heart cells; format: cell-based, chick; conditions: TPB 10^-4 M

**Q.** With `O=S(=O)(O)c1cccc2cccc(Nc3ccccc3)c12` [8-anilino-1-naphthalene sulfonic acid] as the compound, how does the activation at 100 µM [1] read?
**A.** Its activation at 100 µM is 25%.

**Q.** For `CC1OC(OC2CC(O)C3(CO)C4C(O)CC5(C)C(C6=CC(=O)OC6)CCC5(O)C4CCC3(O)C2)C(O)C(O)C1O` (stereo not drawn) [oaubain], which “net tissue extraction of Tc-MIBI” value (perfused rabbit heart) is on record?
**A.** The value was “alter net tissue extraction of Tc-MIBI”.

**Q.** Which results are given for `c1ccc([B-](c2ccccc2)(c2ccccc2)c2ccccc2)cc1` [TPB, tetraphenylborate]?
**A.** peak accumulation of Tc-MIBI, greater than control [2]: 4 fold; myocellular uptake of Tc-MIBI increased in a concentration-dependent manner up to [3]: up to 3×10^-5 M; EC50 ([3]; Gallus gallus, 1 minute pre-incubation with TPB, read-out: half-maximal concentration for TPB enhancement of myocellular uptake of Tc-MIBI): 3000 nM; residual CCCP-insensitive Tc-MIBI content, of the TPB-enhanced Tc-MIBI content [4]: 13%; Tc-MIBI accumulation in liver, kidney, lung and blood [5]: significant increase in Tc-MIBI accumulation within the tissues; increase in tissue retention of Tc-MIBI, all tissues [5]: 50%; enhancement of Tc-MIBI accumulation / cellular toxicity (cultured heart cells): relatively less enhancement of Tc-MIBI accumulation compared to moderate TPB concentrations suggesting cellular toxicity
